According to patent US9144569B2, “Methods of administering an aromatase inhibitor, prostaglandin and GnRH for regulating ovulation in cattle” (UNIVERSITY OF SASKATCHEWAN, priority 2010, dated 2015):
Where two headings read alike, the source gives them in different places.

Experiments:
[1] = Example I: plasma letrozole concentration (LC/MS/MS) and non-compartmental pharmacokinetics after single iv dose; format: in vivo, cattle; conditions: for AUC(0-t): read-out: Area under the curve (AUClast); for Cmax: read-out: Maximal concentration (Cmax); for clearance: read-out: Systemic clearance (Cls) (converted); for half-life: read-out: Half-life (T1/2) (converted); for MRT: read-out: Mean residence time (MRT)
Protocol: Heifers in which a CL was detected during the initial examination were given […] cloprostenol (PGF, Estrumate™, Schering-Plough Animal Health, Pointe-Claire, QC, Canada) intramuscularly (im) to induce regression of the CL and to synchronize ovulation. Heifers were examined daily by transrectal ultrasonography to detect ovulation. Transvaginal ultrasound-guided follicular aspiration of follicles ≧5 mm was performed five to eight days after ovulation to synchronize wave emergence. Heifers were examined daily by transrectal ultrasonography to detect follicular wave emergence, which was expected 1 to 1.5 days after follicular ablation. Four days after follicular ablation (approximately 2.5 days after follicular wave emergence), and at the time follicular dominance becomes apparent, heifers were assigned randomly to the following treatment groups and given a single intravenous dose of 1) 500 μg/kg of letrozole (high dose group, n=9), 2) 250 μg/kg of letrozole (medium dose group, n=10), 3) 125 μg/kg of letrozole (low dose group, n=10), or 4) 20 ml of phosphate buffered saline (PBS control group, n=10). For practical purposes, the dose of letrozole was calculated based on an average weight of 400 kg for all heifers. The average oral dose used in women (2.5-5 mg per day for 5 days) was used to estimate the medium dose for cattle. The high and low doses were set as double and half the medium dose, respectively. The day of treatment was defined as Day 0. For intravenous injection, letrozole was prepared in 95% ethanol at a final concentration of 5 mg per ml, resulting in an injection volume of 10-40 ml. The experiment was performed in four replicates (n=2-3 per group per replicate) and each heifer was used only once.
Blood samples were collected by jugular or coccygeal venipuncture into 10 ml heparinized vacuum tubes (Becton Dickinson Vacutainer Systems, Franklin Lakes, N.J., USA). Blood samples were collected at 0, 0.25, 0.5, 1, 1.5, 2, 3, 4, 6, 8, 12, 24, 36, 48 hours post-treatment using an indwelling jugular catheter as previously described and daily thereafter to the first post-treatment ovulation. Blood samples were centrifuged at 1500×g for 20 minutes; plasma was separated and stored in plastic tubes at −20° C.
Plasma concentrations of letrozole were determined using high performance liquid chromatography tandem mass spectrometry (LC/MS/MS). To extract letrozole from the samples, 250 μL of a buffer solution (0.1M ammonium) were added to 250 μL of plasma followed by the addition of 5 mL of methyl t-butyl ether (MTBE) and vortexed for 15 seconds. The organic layer was removed by pipetting and transferred to a fresh 15 mL plastic tube. This second tube was dried by gentle nitrogen gas flow. The dried extract was reconstituted in 1 mL of 100% ethanol, sonicated for 5 minutes and transferred to a labelled vial for further analysis. Separation was accomplished by HPLC (Agilent 1200, Santa Clara, Calif., USA) fitted with an analytical column (50×2.1 mm, 3 μm particle size; Thermo Scientific Betasil C18, Waltham, Mass., USA) operated at 35° C. Gradient conditions were used at a flow rate of 250 μL/min, starting at 85% A (0.1% acetic acid) and 15% B (0.1% acetic acid in acetonitrile). Initial conditions were held for 2 min and then ramped to 100% B at 6 min, held until 9 min, decreased to 0% B at 11 minutes, and returned to initial conditions at 13 minutes, and held constant until 15 minutes. Mass spectra were collected using a tandem mass spectrometer (Applied Bioscience SCIEX 3000, Foster City, Calif., USA) fitted with an electrospray ionization source, operated in the negative ionization mode. Chromatograms were recorded using multiple reaction monitoring (MRM) mode, where at least two transitions per-analyte were monitored. […]

[2] = system: Hereford-cross beef heifers; experiment: Example II: computer-assisted ultrasound image analysis of CL and dominant follicle; format: in vivo, cattle
Protocol: Ultrasound images from a subset of letrozole-treated (n=4-5 per group) and control (n=6) heifers were recorded throughout the duration of treatment for computer-assisted image analysis. Images were analyzed using a series of custom-developed computer algorithms optimized for ultrasonography ([…] Version 2.8© Saskatoon, Saskatchewan) on a Sun Sparc Station (Sun Microsystems, MT View, Calif.) computer. Echotexture was defined in terms of mean pixel value and pixel heterogeneity. Mean pixel values were quantified using a grey-scale ranging from 0 (black) to 255 (white). The pixel heterogeneity was the standard deviation of grey-scale values of all the pixels within the user-defined region of measurement. Spot analysis of the follicular antrum and corpus luteum, and line analysis of the peripheral antrum, follicular wall and stroma were done as previously described. For spot analyses, the follicular antrum and the CL wall were divided into four quadrants and the sampling area encompassed 75 to 80% of each quadrant. For line analyses, a straight line was drawn transversing the follicular wall from peripheral antrum to stroma and the pixel values along that line were measured in areas located within the 10 and 2 o'clock position of the follicles.
Statistical analyses were done using the Statistical Analysis System software package (SAS Learning Edition 9.1, 2006; SAS Institute Inc., Cary, N.C., USA). Time-series hormone data, plasma letrozole concentration, and follicular and luteal diameter profiles were analysed by repeated measures, using the PROC MIXED procedure. The main effects were treatment, time, and their interactions. […] Single point measurements (interwave and interovulatory intervals, interval from ovulation to onset of CL regression, mean and basal LH concentrations, LH pulse amplitude and frequency, and pharmacokinetic parameters for letrozole) were analysed by analysis of variance. […] If significant main effects or interactions (P≦0.05) were detected, Tukey's post-hoc test was used for multiple comparisons.

plasma estradiol = experiment: Example II: plasma estradiol during 3-day letrozole regimen; format: in vivo, cattle; conditions: 3-day regimen, regardless of stage of follicular development
Protocol: For practical purposes, the total dose of letrozole (250 μg/kg) was calculated on the basis of an average weight of 350 kg for all heifers and administered intravenously in daily divided doses over 3 days (85 μg/kg per day). For intravenous injection, letrozole was prepared in 95% ethanol to a final concentration of 5 mg/ml, resulting in an injection volume of 6 mL/day.
Plasma estradiol concentrations were determined in duplicate by enzyme-linked immunosorbent assay (Cayman Chemical Company, Ann Arbor, Mich., USA). In this competitive ELISA, plasma steroid competes with acetylcholinesterase labelled steroid for the binding site on the polyclonal rabbit anti-steroid antibody. The antiserum to estradiol was reported to cross-react with estradiol-3-glucoronide (14%), estrone (12%), and estriol (0.3%). For all other steroids cross-reactivities were reported as <0.1%. The minimum and maximum values along the standard curve were 6.6 and 4000 pg/well, respectively. The intra- and inter-assay coefficients of variation for reference samples assayed in duplicate were 11.7% and 12.7, respectively.
For the same reasons, estradiol concentrations were transformed to a percentage of the mean concentration of two pre-treatment data points (i.e. for each individual heifer before statistical analysis.

[3] = cited from earlier work
women = experiment: Letrozole at expected time of ovulation in women; format: in vivo, human; conditions: women treated at 18 mm follicle diameter
[4] = female, bovine, plasma, 125 ug/kg, 125 μg/kg single iv, n=9
[5] = female, bovine, plasma, 250 ug/kg, 250 μg/kg single iv, n=9
[6] = female, bovine, plasma, 500 ug/kg, 500 μg/kg single iv, n=9
[7] = female, bovine, plasma, iv, 125 ug/kg, 125 μg/kg single iv, n=9
[8] = female, bovine, plasma, iv, 250 ug/kg, 250 μg/kg single iv, n=9
[9] = female, bovine, plasma, iv, 500 ug/kg, 500 μg/kg single iv, n=9
[10] = female, bovine, plasma, iv, doses combined

## N#Cc1ccc(C(c2ccc(C#N)cc2)n2cncn2)cc1 [Letrozole, letrozole]
[1]; 250 μg/kg, single application
  mean circulating level of letrozole during the first 96 hours: 112 ± 16.26 ng/mL
[1]; doses combined
  Half-life (T1/2): 27.3 ± 0.42 h
[1]; [4]
  AUC(0-t): 8800 ± 720 ng·h/mL
  Cmax: 1200 ± 250 ng/mL
  clearance: 0.243 mL/min/kg
[1]; [5]
  AUC(0-t): 17300 ± 2000 ng·h/mL
  Cmax: 1700 ± 180 ng/mL
  clearance: 0.258 mL/min/kg
[1]; [6]
  AUC(0-t): 28100 ± 2150 ng·h/mL
  Cmax: 2500 ± 370 ng/mL
  clearance: 0.308 mL/min/kg
[1]; female, bovine, plasma, intravenous, 250 μg/kg given in a single dose, read-out: mean concentration of letrozole in the circulation at 96 hours
  concentration at 96 hours: 43.7 ± 8.79 ng/mL
[1]; [7]
  half-life: 26.9 ± 0.95 h
  MRT: 31.7 ± 2 h
[1]; [8]
  half-life: 26.6 ± 1.18 h
  MRT: 33.7 ± 2.98 h
[1]; [9]
  half-life: 28.5 ± 1.05 h
  MRT: 35.8 ± 1.43 h
[1]; [10]
  AUC(0-t): 18200 ± 4030 ng·h/mL
  half-life: 27 h
  Cmax: 1800 ± 270 ng/mL
  MRT: 34 h
  clearance: 0.27 mL/min/kg
[1]; high dose 500 μg/kg iv
  mean plasma letrozole concentration throughout the 8-day period: 0.63 ± 0.04 µg/mL
[1]; low dose 125 μg/kg iv
  mean plasma letrozole concentration throughout the 8-day period: 0.27 ± 0.04 µg/mL
[1]; medium dose 250 μg/kg iv
  mean plasma letrozole concentration throughout the 8-day period: 0.44 ± 0.04 µg/mL
[2]; 3-day regimen, any of the three periods
  mean pixel values and heterogeneity of the dominant follicle antrum (spot analysis): not affected significantly
[2]; treated Days 1 to 3, P<0.06
  mean pixel values of the dominant follicle wall (line analysis), pre- to post-treatment: increased
[2]; treated Days 3 to 5 (printed Days 3 and 5)
  mean pixel values or heterogeneity along the follicular wall (line analysis): no effect
[2]; treated Days 5 to 7 (printed Days 5 and 7)
  mean pixel values or heterogeneity along the follicular wall (line analysis): no effect
Plasma estradiol
  plasma estradiol concentrations compared to control heifers: not different
[3]; in humans [46]
  half-life of letrozole: approximately 2 days
[3]; in women [41, 61]
  half-life of letrozole: 48 h
[3]; in women [41]
  mean residence time: 59 h
  volume of distribution: 1.87 L/kg
women
  ovulation earlier than controls: 24 h
